Structures can show the parent of a compound that is named as a salt.
molecular target: T1, dopaminergic (D2) receptors (Rattus norvegicus, UniProt P61169); test: 3H-Spiperone Displacement (striatal rat brain homogenates); assay type: binding; details: rat striatal homogenate, approx. 100 pM 3H-spiperone, 37° C., 15 min
T1 construct: Homogenates (Brinkmann Polytron) of the corpus striatum in cold HEPES.KOH buffer; from tissue; host or cells: rat corpus striatum (washed membrane homogenate; rats from Charles River)
Description: (A) ^3 H-Spiperone Displacement
Rats (150±10 g; Charles River) were decapitated, the corpus striatum dissected out and frozen on dry ice. The tissues were pooled and stored at -80° C. until used. Homogenates (Brinkmann Polytron) of the corpus striatum in cold HEPES.KOH buffer (final pH=7.4) were centrifuged at 39,000× G. The supernatant was discarded and the pellets were re-suspended in HEPES.KOH buffer and re-centrifuged as above.
Tests to determine the Inhibitory Concentration50 (IC50) of the compounds of Formula I and reference compounds versus ^3 H-spiperone were conducted as follows. Tubes containing either 100 μL of buffer mixture (for total binding), 100 μL of buffer mixture plus 100 μL of 10^-4 M D(+)-butaclamol (for blanks, i.e. non-specific binding), or 100 μL of buffer mixture containing 10^-7, 10^-6 or 10^-5 M test compound were prepared. To each were added 100 μL of a solution of ^3 H-spiperone (New England Nuclear) in buffer mixture (2000 c.p.m. in the incubation mixture) and 800 μL of the striatal tissue suspension. The tubes were then diluted to 1 mL with buffer mixture, giving a final concentration of 10^-8, 10^-7 or 10^-6 M test compound and approximately 100 pM ^3 H-spiperone. The samples were incubated at 37° C. for 15 minutes, filtered in vacuo on glass fiber filters and counted by liquid scintillation spectrometry. […] All samples were run in duplicate.

T1 sequence (P61169 whole entry): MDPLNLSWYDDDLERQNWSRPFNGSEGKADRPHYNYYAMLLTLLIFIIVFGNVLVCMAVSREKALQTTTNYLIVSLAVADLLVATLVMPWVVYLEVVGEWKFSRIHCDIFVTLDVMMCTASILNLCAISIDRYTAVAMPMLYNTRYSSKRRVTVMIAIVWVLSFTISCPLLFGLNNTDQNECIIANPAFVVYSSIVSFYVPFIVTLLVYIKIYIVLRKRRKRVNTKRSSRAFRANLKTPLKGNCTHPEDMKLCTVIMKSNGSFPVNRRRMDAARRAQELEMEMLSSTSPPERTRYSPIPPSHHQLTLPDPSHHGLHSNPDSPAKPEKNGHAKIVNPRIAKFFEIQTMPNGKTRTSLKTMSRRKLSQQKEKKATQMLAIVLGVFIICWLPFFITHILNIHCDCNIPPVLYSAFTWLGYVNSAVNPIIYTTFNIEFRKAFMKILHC

SMILES	IC50 [µM]
CCN(CC)CCNC(=O)c1cc(Cl)c(N)cc1OCC(=O)Cc1ccccc1 [Example 30]	> 1
CCN(CC)CCNC(=O)c1cc(Cl)c(N)cc1OCC1=NCCN1 [Example 51, 4-Amino-5-chloro-N-[2-(diethylamino)ethyl]-2-(1H-4,5-dihydroimidazol-2-yl)methoxybenzamide]	> 1
CCN(CC)CCNC(=O)c1cc(Cl)c(N)cc1OCCO [Example 2, 4-Amino-5-chloro-N-[2-(diethylamino)ethyl]-2-(2-hydroxyethoxy)benzamide]	> 1
CCN(CC)CCNC(=O)c1cc(Cl)c(N)cc1OCC(=O)C(C)C [Example 29]	> 1
CCN(CC)CCNC(=O)c1cc(Cl)c(N)cc1OCCC1(C)OCCO1 [Example 54]	> 1
CCN(CC)CCNC(=O)c1cc(Cl)c(N)cc1OC(C)(C)C(C)=O [Example 31, 4-Amino-5-chloro-N-2-(diethylamino)ethyl]-2-[(3-methyl)butan-2-on-3-yl]oxybenzamide monohydrate]	> 1
CCN(CC)CCNC(=O)c1cc(Cl)c(N)cc1OCC(C)=NO [Example 10, 4-Amino-5-chloro-N-[2-(diethylamino)ethyl]-2-[(2-hydroxyimino)propan-1-yl]oxybenzamide]	> 1
CCN(CC)CCNC(=O)c1cc(Cl)c(N)cc1OCCOCCOC [Example 46, 4-Amino-5-chloro-N-[2-(diethylamino)ethyl]-2-(2-methoxyethoxyethyl)oxybenzamide]	> 1
CCN(CC)CCNC(=O)c1cc(Cl)c(N)cc1OCC#N [Example 13, 4-Amino-5-chloro-2-cyanomethoxy-N-[2-(diethylamino)ethyl]benzamide]	> 1
CCN(CC)CCNC(=O)c1cc(Cl)c(N)cc1OCC(O)Cc1ccccc1 (stereo not drawn) [Example 33, 4-Amino-5-chloro-N-[2-(diethylamino)ethyl]-2-[2-(2-hydroxy-3-phenylpropyl)]oxybenzamide]	> 1
CCN(CC)CCNC(=O)c1cc(Cl)c(N)cc1OC(C)C#N (stereo not drawn) [Example 14]	> 1
CCN(CC)CCNC(=O)c1cc(Cl)c(N)cc1OCc1cc(C)no1 [Example 19, 4-Amino-5-chloro-N-[2-(diethylamino)ethyl]-2-(3-methylisoxazol-5-yl)methoxybenzamide]	> 1
CCN(CC)CCNC(=O)c1cc(Cl)c(N)cc1OCC1OCCO1 [Example 43]	> 1
CCC(=O)COc1cc(N)c(Cl)cc1C(=O)NCCN(CC)CC [Example 26, 4-Amino-2-(2-butanon-1-yl)oxy-5-chloro-N-[2-(diethylamino)-ethyl]benzamide]	> 1
CCC(=O)C(C)Oc1cc(N)c(Cl)cc1C(=O)NCCN(CC)CC (stereo not drawn) [Example 28, 4-Amino-5-chloro-2-(pentan-3-on-2-yl)oxy-N-(2-diethylaminoethyl)benzamide hydrochloride]	> 1
CCN(CC)CCNC(=O)c1cc(Cl)c(N)cc1OC(C)C(C)O (mixture of isomers) [Example 41, 4-Amino-5-chloro-N-2-(diethylamino)ethyl]-2-[(2-hydroxy)but-3-yl]oxybenzamide (mixture of threo and erythro isomers)]	> 1
CCN(CC)CCNC(=O)c1cc(Cl)c(N)cc1OCC(OC)OC [Example 3]	> 1
CCCC(=O)COc1cc(N)c(Cl)cc1C(=O)NCCN(CC)CC [Example 27, 4-Amino-5-chloro-N-[2-(diethylamino)ethyl]-2-(pentan-2-on-1-yl)oxybenzamide]	> 1
CCN(CC)CCNC(=O)c1cc(Cl)c(N)cc1OCC(C)O (stereo not drawn) [Example 12, 4-Amino-5-chloro-N-[2-(diethylamino)ethyl]-2-(2-hydroxypropan-1-yl)oxybenzamide]	> 1
CCC(Oc1cc(N)c(Cl)cc1C(=O)NCCN(CC)CC)C(C)=O (stereo not drawn) [Example 25, 4-Amino-5-chloro-N-[2-(diethylamino)ethyl]-2-(pentan-2-on-3-yl)-oxybenzamide]	> 1
C=CCC(Oc1cc(N)c(Cl)cc1C(=O)NCCN(CC)CC)C(C)=O (stereo not drawn) [Example 24, 4-Amino-5-chloro-N-[2-(diethylamino)ethyl]-2-(5-hexen-2-on-3-yl)-oxybenzamide hydrochloride]	> 1
CCN(CC)CCNC(=O)c1cc(Cl)c(N)cc1OCOCCOC [Example 4]	> 1
CCN(CC)CCNC(=O)c1cc(Cl)c(N)cc1OCC(C)=O [Example 5, 4-Amino-5-chloro-N-[2-(diethylamino)ethyl]-2-(2-propanon-1-yl)-oxybenzamide]	> 1
CCN(CC)CCNC(=O)c1cc(Cl)c(N)cc1OC1CCCCC1=O (stereo not drawn) [Example 9, 4-Amino-5-chloro-2-(cyclohexanon-2-yl)oxy-N-[2-(diethylamino)ethyl]benzamide]	> 1
CCN(CC)CCNC(=O)c1cc(Cl)c(N)cc1OCC1COC(C)(C)O1 (stereo not drawn) [Example 18, 4-Amino-5-chloro-N-[2-(diethylamino)ethyl]-2-(2,2-dimethyl-1,3-dioxalan-4-yl)methoxybenzamide]	> 1
CCN(CC)CCNC(=O)c1cc(Cl)c(N)cc1OCCOC [Example 1, 4-Amino-5-chloro-N-[2-(diethylamino)ethyl]-2-(2-methoxyethoxy)-benzamide]	> 1
CCN(CC)CCNC(=O)c1cc(Cl)c(N)cc1OCc1ccccn1 [Example 45, 4-Amino-5-chloro-N-[2-(diethylamino)ethyl]-2-(2-pyridinomethyl)-oxybenzamide]	> 1
CCN(CC)CCNC(=O)c1cc(Cl)c(N)cc1OCC(=O)OC [Example 15, 4-Amino-5-chloro-N-[2-(diethylamino)ethyl]-2-(2-methoxy-2-oxoethoxy)benzamide]	> 1
CCN(CC)CCNC(=O)c1cc(Cl)c(N)cc1OCC(=O)c1ccccc1 [Example 6, 4-Amino-2-(2-phenyl-2-oxoethoxy)-5-chloro-N-[2-(diethylamino)ethyl]benzamid]	> 1
CCN(CC)CCNC(=O)c1cc(Cl)c(N)cc1OC(C)C(C)=O (stereo not drawn) [Example 7, 4-Amino-2-(butan-2-on-3-yl)oxy-5-chloro-N-[2-(diethylamino)-ethyl]benzamide]	> 1

From patent publication US5011992A, “Pharmacologically active substituted benzamides” (Bristol-Myers Squibb Company, priority 1989, dated 1991)
